Assay results as given in patent US7670631B2, “Method for the prevention of malaria infection of humans by hepatocyte growth factor antagonists” (ALFAMA—Investigação e Desenvolvimento de Produtos …, priority 2003, dated 2010).

Assays:
P. berghei sporozoites [1] = test: Genistein effect on hepatic infection with Plasmodium berghei sporozoites in vitro (EEF count in HepG2 cells); assay type: cell-based; details: Genistein at 25 μM, 24 h with P. berghei sporozoites
Procedure: HepG2 cells were maintained in DMEM 10% FCS, 1 mM glutamine. P. berghei sporozoites were obtained from dissection of infected Anopheles stephensi mosquito salivary glands. P. berghei sporozoites ([…]) were added to monolayers of 2×10^5 HepG2 cells (in the presence or not of Genistein) for 24 h before fixation and staining with anti-EEF mAb (2E6), followed by anti-mouse IgG-FITC antibodies. Infection was quantified by counting the number of EEFs per coverslip.

HGF receptor = test: ISIF activity of medium conditioned by primary hepatocytes; assay type: cell-based
Procedure: (§1) Supernatant were generated from cultures containing the mouse hepatoma cells Hepa1-6 and P. yoelii sporozoites (mH/Py conditioned media). To detect ISIF activity, fresh hepatoma cells were incubated with mH/Py conditioned media for different periods of time. Cells were then washed and incubated with P. yoelii sporozoites. Infection was examined 24 h later by staining the exo-erythrocytic forms of the parasite (EEFs). As controls, we used Hepa1-6 cells pre-incubated for identical periods of time with fresh medium before addition of P. yoelii sporozoites. Pre-treatment of hepatocytes with mH/Py conditioned medium increases the level of infection (FIG. 1a). […] Since sporozoites are obtained by dissection of infected mosquito salivary glands, we also tested conditioned media that were obtained from cultures containing hepatoma cells and material of salivary glands from uninfected mosquitoes. Medium conditioned in this way was ineffective (FIG. 1b).
Primary hepatocytes were obtained by liver perfusion. […] Cells that have been traversed by sporozoites can be detected using a cell-impermeant fluorescent tracer macromolecule that only penetrates into wounded cells. P. yoelii sporozoites were incubated with Hepa1-6 cells in the presence of fluorescent-labelled dextran before staining for HGF. […]

MET = biological target: T1, MET (Homo sapiens, UniProt P08581); details: cited from earlier work
T1 construct: host or cells: MLP-29 cells, GTL-16 gastric carcinoma cells and NIH3T3 fibroblasts are named in the same paragraph

Plasmodium berghei = details: cited from earlier work
ISIF/HGF secretion = ISIF/HGF secretion by HepG2 cells after wounding (infection susceptibility assay); assay type: cell-based; details: HepG2 cells treated, washed, incubated with P. berghei sporozoites to generate conditioned medium
Procedure: HepG2 cells were treated with Brefeldin-A (BFA), an inhibitor of protein transport to the Golgi vesicles that blocks constitutive secretion in eukaryotic cells. BFA treated cells, and untreated control cells, were then washed and incubated with P. berghei sporozoites to generate conditioned medium. […] The effect of BFA was dose-dependent. Supernatants of mechanically wounded HepG2 cells were collected after various time periods of incubation. ISIF/HGF levels, as determined by the infection susceptibility assay (FIG. 2c) and western blot analysis, (FIG. 2d) increased with time. The ISIF activity was abolished by the addition of neutralizing anti-HGF antibodies (FIG. 2c).

P. berghei sporozoites [2] = test: Infection susceptibility (ISIF) assay: HepG2 cells pre-incubated with growth factors or conditioned medium plus antibodies before P. berghei sporozoites; assay type: cell-based, Plasmodium berghei; details: HepG2 cells pre-incubated before addition of P. berghei sporozoites
Procedure: as §1
To test whether ISIF activity was mediated by known growth factor, two well-characterized growth factors known to be released after injury were tested: basic fibroblast growth factor (bFGF) and hepatocyte growth factor (HGF). HepG2 cells were pre-incubated with human HGF or bFGF before addition of P. berghei sporozoites. As positive and negative controls, cells were incubated with hH/Pb conditioned medium or fresh medium, respectively. […]

[3] = in vivo; cited from earlier work

T1 sequence (P08581 25-1390): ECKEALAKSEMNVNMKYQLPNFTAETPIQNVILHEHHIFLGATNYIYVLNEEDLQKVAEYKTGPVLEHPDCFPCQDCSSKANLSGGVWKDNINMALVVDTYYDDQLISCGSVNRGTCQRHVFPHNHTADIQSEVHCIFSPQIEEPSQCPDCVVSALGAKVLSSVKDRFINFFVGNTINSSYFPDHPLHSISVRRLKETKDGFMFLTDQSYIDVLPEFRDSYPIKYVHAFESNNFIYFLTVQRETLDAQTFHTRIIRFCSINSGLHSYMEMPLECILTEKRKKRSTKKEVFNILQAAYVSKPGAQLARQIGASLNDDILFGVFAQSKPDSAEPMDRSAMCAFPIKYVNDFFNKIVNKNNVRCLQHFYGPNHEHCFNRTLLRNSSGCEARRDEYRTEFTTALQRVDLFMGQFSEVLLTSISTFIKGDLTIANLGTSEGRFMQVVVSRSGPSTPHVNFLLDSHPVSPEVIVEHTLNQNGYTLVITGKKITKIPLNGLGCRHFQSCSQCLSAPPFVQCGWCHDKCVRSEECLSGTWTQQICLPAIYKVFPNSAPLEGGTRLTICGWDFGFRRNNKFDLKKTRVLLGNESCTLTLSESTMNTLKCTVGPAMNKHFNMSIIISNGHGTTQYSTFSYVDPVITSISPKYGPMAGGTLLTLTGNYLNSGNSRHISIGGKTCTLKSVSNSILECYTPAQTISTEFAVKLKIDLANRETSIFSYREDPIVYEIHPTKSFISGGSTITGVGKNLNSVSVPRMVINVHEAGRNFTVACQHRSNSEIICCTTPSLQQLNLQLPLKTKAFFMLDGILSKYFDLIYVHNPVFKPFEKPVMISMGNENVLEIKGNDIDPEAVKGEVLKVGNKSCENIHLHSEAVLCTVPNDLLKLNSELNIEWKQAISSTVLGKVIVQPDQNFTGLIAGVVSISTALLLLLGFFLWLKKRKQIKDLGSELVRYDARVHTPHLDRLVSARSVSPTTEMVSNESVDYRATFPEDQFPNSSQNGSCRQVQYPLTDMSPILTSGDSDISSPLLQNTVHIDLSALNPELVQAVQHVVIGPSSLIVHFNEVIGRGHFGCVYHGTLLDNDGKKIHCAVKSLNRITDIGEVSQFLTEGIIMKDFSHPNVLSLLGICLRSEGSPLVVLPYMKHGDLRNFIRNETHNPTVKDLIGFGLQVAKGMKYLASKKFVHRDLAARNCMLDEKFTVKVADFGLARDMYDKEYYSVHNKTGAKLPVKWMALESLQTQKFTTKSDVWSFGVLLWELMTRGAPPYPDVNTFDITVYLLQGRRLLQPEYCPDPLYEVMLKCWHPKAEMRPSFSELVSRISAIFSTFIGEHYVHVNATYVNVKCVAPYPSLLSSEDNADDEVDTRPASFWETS

In the case of `O=c1c(-c2ccc(O)cc2)coc2cc(O)cc(O)c12` [Genistein, genistein], the “reduction in infection (number of EEFs per coverslip)” value (P. berghei sporozoites [1]) is reported as “approximately 75%”.
For `COC(=O)[C@@]1(O)C[C@H]2O[C@]1(C)n1c3ccccc3c3c4c(c5c6ccccc6n2c5c31)C(=O)NC4` [K252a], the ISIF activity (HGF receptor) is listed as “abolished ISIF activity” and the “concentration inhibiting Met mediated signals” value (MET) is listed as “nanomolar concentrations”.
In the case of `C[C@@H]1C[C@H]2O[C@@H]2/C=C\C=C\C(=O)Cc2c(Cl)c(O)cc(O)c2C(=O)O1` [radicicol], the “activity against Plasmodium berghei in mice” value (Plasmodium berghei) is listed as “moderately active”.
In the case of `C[C@H]1CCC/C=C/[C@@H]2C[C@H](O)C[C@H]2[C@H](O)/C=C/C(=O)O1` [BFA, Brefeldin-A], the ISIF/HGF secretion (ISIF/HGF secretion) is reported as “inhibits ISIF/HGF secretion”.
For “HGF: hepatocyte growth factor, ligand of the receptor protein tyrosine kinase Met”, the “effect on infection of pre-incubation of HepG2 cells with growth factor” value (P. berghei sporozoites [2]) was “increased infection to a greater extent than the hH/Pb conditioned medium”.
In the case of `COc1cc(NC(C)CCCN)c2ncccc2c1` (stereo not shown) [Primaquine, primaquine], the half life [3] is given as “very short”.
In the case of `COc1cc(C)c2c(Oc3cccc(C(F)(F)F)c3)c(OC)cc(NC(C)CCCN)c2n1` (stereo not shown) [tafenoquine], the terminal half life [3] is given as “about 14 days”.
With bFGF: basic fibroblast growth factor the “effect on infection of pre-incubation of HepG2 cells with growth factor” value (P. berghei sporozoites [2]) was “ineffective”.
For `OC(c1cc(C(F)(F)F)nc2c(C(F)(F)F)cccc12)C1CCCCN1` (stereo not shown) [Mefloquine, mefloquine], the elimination half life [3] is given as “two to three”.
